Assay results taken from PMC6522510 (Nature Communications, 2019).
Counter-ions that a name gives are not always drawn. Like-named read-outs stand apart in the source and are kept apart here.

Experiments:
Set-up in all cases: species or system AML cell lines (8); Primary HTS, single concentration about 10 uM, Cell Titer Glo viability; log10 luminescence, per cent inhibition relative to cycloheximide control
Conditions in all cases: 72 h, relative to cycloheximide control, log10 luminescence, inhibitor
CHRF288-11 = tested on: CHRF288-11
CMK = tested on: CMK
CMS = tested on: CMS
M07e = tested on: M07e
ML-2 = tested on: ML-2
MOLM-13 = tested on: MOLM-13
MV4-11 = tested on: MV4-11
U937 = tested on: U937

SMILES	CHRF288-11 %inh (CHRF288-11) [%]	CMK %inh (CMK) [%]	CMS %inh (CMS) [%]	M07e %inh (M07e) [%]	ML-2 %inh (ML-2) [%]	MOLM-13 %inh (MOLM-13) [%]	MV4-11 %inh (MV4-11) [%]	U937 %inh (U937) [%]	CHRF288-11 %inh (CHRF288-11; CHRF288-11 %inh, 10 µM) [%]	CMK %inh (CMK; CMK %inh, 10 µM) [%]	CMS %inh (CMS; CMS %inh, 10 µM) [%]	M07e %inh (M07e; M07e %inh, 10 µM) [%]	ML-2 %inh (ML-2; ML-2 %inh, 10 µM) [%]	MOLM-13 %inh (MOLM-13; MOLM-13 %inh, 10 µM) [%]	MV4-11 %inh (MV4-11; MV4-11 %inh, 10 µM) [%]	U937 %inh (U937; U937 %inh, 10 µM) [%]
CC(=O)O[C@H]1C[C@@H]2CC[C@@H]3[C@H](CC[C@@]4(C)[C@H]3C[C@H](N3CC[N+](C)(C)CC3)[C@@H]4OC(C)=O)[C@@]2(C)C[C@@H]1N1CC[N+](C)(C)CC1 [SJ000555714-1, PIPECURIUM BROMIDE]	-2.142	-9.103	0.5876	-1.4	0.08837	-1.447	0.2738	-1.326								
CC[N+](C)(CC)CCOC(=O)C(O)(c1ccccc1)C1CCCCC1 (stereo not drawn) [SJ000555718-1, OXYPHENONIUM BROMIDE]	89.25	0.4248	-0.491	-3.166	3.325	7.019	4.785	4.807								
CC(C)(C)C(=O)Oc1ccc(S(=O)(=O)Nc2ccccc2C(=O)NCC(=O)O)cc1 [SJ000556638-2, SIVELESTAT SODIUM SALT]									2.891	-3.181	2.093	0.385	1.02	-1.5	2.862	-0.4301
CC(C)(C)C(=O)Oc1ccc(S(=O)(=O)Nc2ccccc2C(=O)NCC(=O)O)cc1 [SJ000556638-3, SIVELESTAT SODIUM SALT]									-1.426	-2.417	-1.314	0.5204	0.7785	-1.044	-1.916	-0.2709
Cc1ccc(Nc2nccc(N(C)c3ccc4c(C)n(C)nc4c3)n2)cc1S(N)(=O)=O [SJ000556680-2, PAZOPANIB | 786034 | GSK-786034 | GW-786034 | GW-786034B | PAZOPANIB HCL (GW786034 HCL)]	59.62	114.3	28.45	33.41	7.239	85.38	69.1	10.79								
C/C(O)=C(\C#N)C(=O)Nc1ccc(C(F)(F)F)cc1 [SJ000556684-2, TERIFLUNOMIDE]	13.26	2.602	4.451	0.1279	6.049	8.514	2.233	-0.6256								
Cc1[nH]c(/C=C2\C(=O)Nc3ccccc32)c(C)c1CCC(=O)O [SJ000556685-2, ORANTINIB | SU-6668 | TSU-68 | TSU-68 (SU6668, ORANTINIB)]	14.71	1.601	12.46	0.796	2.987	33.6	14.82	4.629								
CN(C(=O)c1cc2ccccc2cc1C(=O)C(c1cccc2ccccc12)P(=O)(O)O)C1CCN(C(=O)c2ccccc2)CC1 (stereo not drawn) [SJ000556691-1, CATHEPSIN G INHIBITOR I]	9.27	10.35	2.107	0.0007022	0.3338	0.5105	1.483	-1.516								
CO[C@@H]1[C@H](OC(=O)/C=C/C=C/C=C/C=C/C(=O)O)CC[C@]2(CO2)[C@H]1[C@@]1(C)O[C@@H]1CC=C(C)C [SJ000556696-1, FUMAGILLIN]									12.42	-0.5821	10.64	2.083	2.951	6.124	13.12	19.23
